The test system of one data set is MCF-7 cells. Briefly: Cytotoxicity using MTT assay, MCF-7. In kind it is cell-based. The conditions noted are these: for IC50: Homo sapiens, MCF7, 48 h, 48 h, read-out: IC50 cytotoxicity against MCF-7; for cell death: MCF-7 cells. On the procedure: (§1) Breast cancer (MCF-7) and liver cancer (HepG2) cell lines were collected from National Cancer Institute in Cairo and grown in “RPMI-1640 medium L-Glutamine. The cells were grown in 10% fetal bovine serum (FBS) and 1% penicillin-streptomycin using standard tissue culture protocol. On the second day, cells were grown in triplicate on a 96-well plate at a density of 5 × 10^4 cells and incubated with the investigated compounds at “0.01, 0.1, 1, 10, and 100 µM”. Cell viabilioty was measured with MTT solution. The absorbance was measured using an ELISA microplate reader. After comparing the treated groups to the control, the IC50 values were recorded to indicate the level of viability following previous work.

The subject of another data set is HepG2 cells. Nature of the data set: Cytotoxicity using MTT assay, HepG2. The format is cell-based. The conditions noted are these: read-out: IC50 cytotoxicity against HepG2. The method, then:
as §1
Background: Tetrazolium assays rely on reduction of a dye to a coloured formazan, in cell work by metabolically active cells.

The target of a further data set is VEGFR2 (KDR) (Homo sapiens, UniProt P35968). Nature of the data set: biochemical.
Chain of VEGFR2 (KDR) (P35968 20-1356): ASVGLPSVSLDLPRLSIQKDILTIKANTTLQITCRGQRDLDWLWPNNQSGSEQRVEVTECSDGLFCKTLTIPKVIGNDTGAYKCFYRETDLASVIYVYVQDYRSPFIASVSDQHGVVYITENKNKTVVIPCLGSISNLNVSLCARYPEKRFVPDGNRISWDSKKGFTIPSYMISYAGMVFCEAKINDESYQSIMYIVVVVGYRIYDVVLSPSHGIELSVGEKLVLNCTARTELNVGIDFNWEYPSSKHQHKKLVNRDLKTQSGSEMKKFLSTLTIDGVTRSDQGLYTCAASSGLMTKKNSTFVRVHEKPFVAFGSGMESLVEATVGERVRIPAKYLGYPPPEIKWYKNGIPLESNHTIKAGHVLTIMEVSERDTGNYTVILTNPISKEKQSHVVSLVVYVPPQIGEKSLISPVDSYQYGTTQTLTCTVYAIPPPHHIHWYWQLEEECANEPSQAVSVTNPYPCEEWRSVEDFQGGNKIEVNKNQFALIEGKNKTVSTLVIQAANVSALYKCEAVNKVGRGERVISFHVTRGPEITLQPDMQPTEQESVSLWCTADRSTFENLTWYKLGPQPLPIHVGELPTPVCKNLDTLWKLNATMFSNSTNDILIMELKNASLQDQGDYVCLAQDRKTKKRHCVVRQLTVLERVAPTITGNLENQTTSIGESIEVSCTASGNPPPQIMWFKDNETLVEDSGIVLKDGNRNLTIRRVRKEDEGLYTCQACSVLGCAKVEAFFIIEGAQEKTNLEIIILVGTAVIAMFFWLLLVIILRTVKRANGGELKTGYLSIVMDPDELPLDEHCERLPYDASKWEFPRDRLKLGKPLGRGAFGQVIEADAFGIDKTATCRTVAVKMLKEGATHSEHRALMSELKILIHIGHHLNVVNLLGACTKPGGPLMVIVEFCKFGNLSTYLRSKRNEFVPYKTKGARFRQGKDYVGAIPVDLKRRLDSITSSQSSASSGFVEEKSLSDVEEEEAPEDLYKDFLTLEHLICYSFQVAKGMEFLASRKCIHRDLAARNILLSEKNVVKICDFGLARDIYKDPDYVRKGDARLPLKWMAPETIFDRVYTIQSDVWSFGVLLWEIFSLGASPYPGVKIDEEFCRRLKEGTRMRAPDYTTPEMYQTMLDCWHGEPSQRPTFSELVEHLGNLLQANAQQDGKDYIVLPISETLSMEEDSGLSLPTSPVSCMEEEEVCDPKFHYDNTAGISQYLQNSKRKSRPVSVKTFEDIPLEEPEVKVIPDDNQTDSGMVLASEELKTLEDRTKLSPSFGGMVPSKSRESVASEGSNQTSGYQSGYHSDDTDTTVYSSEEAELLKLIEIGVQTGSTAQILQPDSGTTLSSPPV
The next data set deals with Topoisomerase II (Homo sapiens, UniProt P11388). Briefly: Topoisomerase II screening kit.
Chain of Topoisomerase II (P11388 whole entry): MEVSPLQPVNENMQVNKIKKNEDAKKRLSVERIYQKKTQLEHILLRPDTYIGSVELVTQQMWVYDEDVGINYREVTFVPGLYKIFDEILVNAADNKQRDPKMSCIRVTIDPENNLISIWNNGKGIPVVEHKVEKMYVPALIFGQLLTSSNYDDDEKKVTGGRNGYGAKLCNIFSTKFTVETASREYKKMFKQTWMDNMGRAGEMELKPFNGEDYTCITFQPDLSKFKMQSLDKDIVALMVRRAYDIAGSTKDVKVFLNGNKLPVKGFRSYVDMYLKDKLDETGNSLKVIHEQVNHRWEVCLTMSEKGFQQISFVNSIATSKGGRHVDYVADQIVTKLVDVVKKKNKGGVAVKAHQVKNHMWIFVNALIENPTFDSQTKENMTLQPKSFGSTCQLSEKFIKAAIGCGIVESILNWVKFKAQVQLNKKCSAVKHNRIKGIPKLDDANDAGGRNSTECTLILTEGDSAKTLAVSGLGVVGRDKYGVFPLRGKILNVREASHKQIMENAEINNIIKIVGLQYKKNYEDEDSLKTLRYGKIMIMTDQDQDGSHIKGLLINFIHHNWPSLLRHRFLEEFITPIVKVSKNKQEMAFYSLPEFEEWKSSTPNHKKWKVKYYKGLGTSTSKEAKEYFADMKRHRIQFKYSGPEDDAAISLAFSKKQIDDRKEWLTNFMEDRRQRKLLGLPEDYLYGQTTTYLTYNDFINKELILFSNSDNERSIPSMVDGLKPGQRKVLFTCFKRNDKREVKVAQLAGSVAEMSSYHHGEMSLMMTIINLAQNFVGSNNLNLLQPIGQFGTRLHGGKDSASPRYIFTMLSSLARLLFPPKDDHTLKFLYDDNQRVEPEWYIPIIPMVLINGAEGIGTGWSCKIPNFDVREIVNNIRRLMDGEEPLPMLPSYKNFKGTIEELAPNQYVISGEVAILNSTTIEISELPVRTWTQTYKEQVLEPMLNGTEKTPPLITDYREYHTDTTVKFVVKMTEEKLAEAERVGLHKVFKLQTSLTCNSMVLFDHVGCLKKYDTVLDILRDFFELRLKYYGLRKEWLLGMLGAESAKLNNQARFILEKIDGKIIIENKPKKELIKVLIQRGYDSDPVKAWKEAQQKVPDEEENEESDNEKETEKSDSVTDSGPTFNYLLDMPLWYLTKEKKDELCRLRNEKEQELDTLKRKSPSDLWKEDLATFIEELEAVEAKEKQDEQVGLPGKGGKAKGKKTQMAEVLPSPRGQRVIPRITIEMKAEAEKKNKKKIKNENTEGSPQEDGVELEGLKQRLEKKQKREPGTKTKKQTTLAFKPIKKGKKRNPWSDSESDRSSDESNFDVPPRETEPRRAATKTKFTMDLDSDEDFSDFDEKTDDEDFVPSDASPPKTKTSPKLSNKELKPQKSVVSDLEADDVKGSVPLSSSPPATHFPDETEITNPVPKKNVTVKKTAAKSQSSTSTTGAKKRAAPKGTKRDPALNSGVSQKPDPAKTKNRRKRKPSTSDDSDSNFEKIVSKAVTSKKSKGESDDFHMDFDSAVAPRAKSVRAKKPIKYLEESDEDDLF

The structures appear in SMILES notation. Structures can show the parent of a compound that is named as a salt. Where two headings read alike, the source gives them in different places.

Take `COC(=O)C(CO)NC(=O)c1cc2ccccc2oc1=O` (stereo not shown) [4d, Methyl 3-hydroxy-2-[(2-oxo-2H-chromene-3-carbonyl)-amino]-propanoate]: the melting point (as a rule, the temperature of the solid-liquid transition) lay within 177 to 179 °C.

On to `COC(=O)C(NC(=O)C(NC(=O)c1cc2ccccc2oc1=O)C(C)C)C(C)C` (stereo not shown) [7b, Methyl 3-Methyl-2-{3-methyl-2-[(2-oxo-2H-chromene-3-carbonyl)-amino]-butyrylamino}-butanoate], for which the melting point fell in the range of 97 to 99 °C.

In turn, `COC(=O)C(NC(=O)c1cc2ccccc2oc1=O)c1ccccc1` (stereo not shown) [4j, Methyl [(2-oxo-2H-chromene-3-carbonyl)-amino]-phenylacetate] returned a melting point of 189 to 192 °C.

For `COC(=O)CC[C@H](NC(=O)c1cc2ccccc2oc1=O)C(=O)OC` [4h, Dimethyl 2-[(2-oxo-2H-chromene-3-carbonyl)-amino] pentanedioate], the melting point was in the range of 64 to 66 °C.

On to `COC(=O)[C@H](CCSC)NC(=O)c1cc2ccccc2oc1=O` [4i, Methyl 4-methylsulfanyl-2-[(2-oxo-2H-chromene-3-carbonyl)-amino] butanoate], for which the melting point was 81 to 83 °C.

`COC(=O)C(NC(=O)c1cc2ccccc2oc1=O)C(C)C` (stereo not shown) [4e, Methyl 3-methyl-2-[(2-oxo-2H-chromene-3-carbonyl)-amino] butanoate] returned a melting point of 75 to 77 °C.

As to `COC(=O)[C@H](CC(C)C)NC(=O)c1cc2ccccc2oc1=O` [4f, Methyl 4-methyl-2-[(2-oxo-2H-chromene-3-carbonyl)-amino] pentan-oate], the melting point lay within 95 to 97 °C.

Compound `COC(=O)C(NC(=O)C(CCSC)NC(=O)c1cc2ccccc2oc1=O)C(C)C` (stereo not shown) [8b, Methyl 3-methyl-2-{4-methylsulfanyl-2-[(2-oxo-2H-chromene-3-carbonyl)-amino]-butyrylamino}-butanoate] gave a melting point of 98 to 99 °C.

`COC(=O)[C@H](C)NC(=O)c1cc2ccccc2oc1=O` [4b, Methyl 2-[(2-oxo-2H-chromene-3-carbonyl)-amino] propanoate] displayed a melting point of 104 to 106 °C.

For `COC(=O)C(CCSC)NC(=O)CCNC(=O)c1cc2ccccc2oc1=O` (stereo not shown) [6c, Methyl 4-methylsulfanyl-2-{3-[(2-oxo-2H-chromene-3-carbonyl)-amino]-propionylamino}-butanoate], the IC50 – broadly, the point on the concentration scale where inhibition reaches its midpoint – amounted to 5.85 µM in the data set on MCF-7 cells; 33.8 µM in the data set on HepG2 cells (48 h); 33.9 µM in the data set on HepG2 cells (Homo sapiens, HepG2, 48 h); 34.2 ± 1.06 µM against VEGFR2 (KDR); 8.6 ± 0.15 µM against Topoisomerase II. In the data set on MCF-7 cells, this compound registered a cell death of 97.35%.

For `COC(=O)CCNC(=O)c1cc2ccccc2oc1=O` [4c, Methyl 3-[(2-oxo-2H-chromene-3-carbonyl)-amino] propanoate], the melting point lay within 135 to 137 °C.

Take `COC(=O)[C@H](CCSC)NC(=O)[C@@H](NC(=O)c1cc2ccccc2oc1=O)C(C)C` [7c, Methyl 2-{3-methyl-2-[(2-oxo-2H-chromene-3-carbonyl)-amino]-butyrylamino} -4-methylsulfanyl butanoate]: the melting point was in the range of 100 to 101 °C.

`COC(=O)CCNC(=O)CCNC(=O)c1cc2ccccc2oc1=O` [6a, Methyl 3-{3-[(2-oxo-2H-chromene-3-carbonyl)-amino]-propionylamino} propanoate] returned a melting point of 127 to 128 °C.

With `COC(=O)C[C@H](NC(=O)c1cc2ccccc2oc1=O)C(=O)OC` (as salt: succinate) [4g, Dimethyl 2-[(2-oxo-2H-chromene-3-carbonyl)-amino] succinate], the melting point is 69 to 71 °C.

In turn, `COC(=O)C(Cc1c[nH]c2ccccc12)NC(=O)c1cc2ccccc2oc1=O` (stereo not shown) [4l, Methyl 3-(1H-Indol-3-yl)-2-[(2-oxo-2H-chromene-3-carbonyl)-amino]-propanoate] returned a melting point of 138 to 139 °C.

Consider `COC(=O)C(Cc1ccc(O)cc1)NC(=O)c1cc2ccccc2oc1=O` (stereo not shown) [4k, Methyl 3-(4-hydroxyphenyl)-2-[(2-oxo-2H-chromene-3-carbonyl)-amino]-propanoate], for which the IC50 in the data set with MCF-7 cells was 4.98 µM; in the data set on HepG2 cells (48 h) it was 9.44 µM; in the data set with HepG2 cells (Homo sapiens, HepG2, 48 h), 9.4 µM; against VEGFR2 (KDR), 23.6 ± 1.19 µM; against Topoisomerase II, 4.1 ± 0.64 µM. This compound also displayed a cell death in the data set with MCF-7 cells of 97.82%.

On to `COC(=O)C(NC(=O)CCNC(=O)c1cc2ccccc2oc1=O)C(C)C` (stereo not shown) [6b, Methyl 3-Methyl-2-{3-[(2-oxo-2H-chromene-3-carbonyl)-amino]-propionyl-amino}-butanoate], for which the melting point fell in the range of 101 to 103 °C.

In turn, `COC(=O)CNC(=O)c1cc2ccccc2oc1=O` (as salt: hydrochloride) [4a, Methyl [(2-oxo-2H-chromene-3-carbonyl)-amino] ethanoate] came in with a melting point of 173 to 175 °C.

The compound `COC(=O)C(CCSC)NC(=O)C(CCSC)NC(=O)c1cc2ccccc2oc1=O` (stereo not shown) [8c, Methyl 4-methylsulfanyl-2-{4-methylsulfanyl-2-[(2-oxo-2H-chromene-3-carbonyl)-amino]-butyrylamino}-butanoate] returned a melting point of 109 to 111 °C.

For the compound `O=C(O)CCNC(=O)c1cc2ccccc2oc1=O` [5c, 3-[(2-Oxo-2H-chromene-3-carbonyl)-amino]-propanoic acid], the melting point was 195 to 197 °C.

The compound `CC(C)C(NC(=O)c1cc2ccccc2oc1=O)C(=O)O` (stereo not shown) [5e, 3-Methyl-2-[(2-oxo-2H-chromene-3-carbonyl)-amino] butanoic acid] came in with a melting point of 210 to 212 °C.

`COC(=O)CCNC(=O)C(CCSC)NC(=O)c1cc2ccccc2oc1=O` (stereo not shown) [8a, Methyl 3-{4-methylsulfanyl-2-[(2-oxo-2H-chromene-3-carbonyl)-amino]-butyrylamino}-propanoate] gave a melting point of 104 to 105 °C.

`COC(=O)CCNC(=O)C(NC(=O)c1cc2ccccc2oc1=O)C(C)C` (stereo not shown) [7a, Methyl 3-{3-methyl-2-[(2-oxo-2H-chromene-3-carbonyl)-amino]-butyryl-amino}-propanoate] yielded a melting point of 149 to 151 °C.

Compound `CSCCC(NC(=O)c1cc2ccccc2oc1=O)C(=O)O` (stereo not shown) [5i, 4-Methylsulfanyl-2-[(2-oxo-2H-chromene-3-carbonyl)-amino]-butanoic acid] returned a melting point of 108 to 109 °C.

Values taken from publication PMC9737644, “Facile Synthesis of Some Coumarin Derivatives and Their Cytotoxicity through VEGFR2 and Topoisomerase II Inhibition” (Molecules, 2022).
